According to patent US8563505B2, “Hepatitis C virus inhibitors” (priority 2008, dated 2013):

Assays:
[1] = biological target: T1, HCV NS3/4A protease complex (Hepatitis C virus genotype 1a, UniProt P27958, C1454S/C1711G); experiment: FRET peptide assay to monitor HCV NS3/4A proteolytic activity; format: biochemical; settings: NS3/4A strain not stated
T1 construct: DNA encoding the recombinant HCV NS3/4A protease complex (amino acids 1027 to 1711) for these strains; inferred from pET21b vector and Ni-NTA purification) (C); made in house; host or cells: Escherichia coli BL21 (DE3), pET21b
Text: HCV NS3 protease complexes, derived from the BMS strain, H77 strain or J4L6S strain, were generated, as described below. These purified recombinant proteins were generated for use in a homogeneous assay (see below) to provide an indication of how effective compounds of the present disclosure would be in inhibiting HCV NS3 proteolytic activity.
The H77 and J4L6S strains were used for production of recombinant NS3/4A protease complexes. DNA encoding the recombinant HCV NS3/4A protease complex (amino acids 1027 to 1711) for these strains was manipulated as described by P. Gallinari et al. (see Gallinari P, Paolini C, Brennan D, Nardi C, Steinkuhler C, De Francesco R. Biochemistry. 38(17):5620-32, (1999)). Briefly, a three-lysine solubilizing tail was added at the 3′-end of the NS4A coding region. The cysteine in the P1 position of the NS4A-NS4B cleavage site (amino acid 1711) was changed to a glycine to avoid the proteolytic cleavage of the lysine tag. Furthermore, a cysteine to serine mutation was introduced by PCR at amino acid position 1454 to prevent the autolytic cleavage in the NS3 helicase domain. The variant DNA fragment was cloned in the pET21b bacterial expression vector (Novagen) and the NS3/4A complex was expressed in Escherichia coli strain BL21 (DE3) (Invitrogen) following the protocol described by P. Gallinari et al. (see Gallinari P, Brennan D, Nardi C, Brunetti M, Tomei L, Steinkuhler C, De Francesco R., J Virol. 72(8):6758-69 (1998)) with modifications. Briefly, the NS3/4A protease complex expression was induced with 0.5 millimolar (mM) Isopropyl β-D-1-thiogalactopyranoside (IPTG) for 22 hours (h) at 20° C. A typical fermentation (1 Liter (L)) yielded approximately 10 grams (g) of wet cell paste. The cells were resuspended in lysis buffer (10 mL/g) consisting of 25 mM N-(2-Hydroxyethyl)Piperazine-N′-(2-Ethane Sulfonic acid) (HEPES), pH 7.5, 20% glycerol, 500 mM Sodium Chloride (NaCl), 0.5% Triton X-100, 1 microgram/milliliter ([…]) lysozyme, 5 mM Magnesium Chloride (MgCl2), 1 μg/ml DnaseI, 5 mM […] (βME), Protease inhibitor-Ethylenediamine Tetraacetic acid (EDTA) free (Roche), homogenized and incubated for 20 minutes (min) at 4° C. The homogenate was sonicated and clarified by ultra-centrifugation at 235000 g for 1 hour (h) at 4° C. Imidazole was added to the supernatant to a final concentration of 15 mM and the pH adjusted to 8.0. The crude protein extract was loaded on a Nickel-Nitrilotriacetic acid (Ni-NTA) column pre-equilibrated with buffer B (25 mM HEPES, pH 8.0, 20% glycerol, 500 mM NaCl, 0.5% Triton X-100, 15 mM imidazole, 5 mM βME). The sample was loaded at a flow rate of 1 mL/min. The column was washed with 15 column volumes of buffer C (same as buffer B except with 0.2% Triton X-100). The protein was eluted with 5 column volumes of buffer D (same as buffer C except with 200 mM Imidazole).
NS3/4A protease complex-containing fractions were pooled and loaded on a desalting column Superdex-S200 pre-equilibrated with buffer D (25 mM HEPES, pH 7.5, 20% glycerol, 300 mM NaCl, 0.2% Triton X-100, 10 mM (βME). Sample was loaded at a flow rate of 1 mL/min. NS3/4A protease complex-containing fractions were pooled and concentrated to approximately 0.5 mg/ml. The purity of the NS3/4A protease complexes, derived from the BMS, H77 and J4L6S strains, were judged to be greater than 90% by SDS-PAGE and mass spectrometry analyses. The enzyme was stored at −80° C., thawed on ice and diluted prior to use in assay buffer.
The purpose of this in vitro assay was to measure the inhibition of HCV NS3 protease complexes, derived from the BMS strain, H77 strain or J4L6S strain, as described above, by compounds of the present disclosure. This assay provides an indication of how effective compounds of the present disclosure would be in inhibiting HCV NS3 proteolytic activity.
In order to monitor HCV NS3/4A protease activity, an NS3/4A peptide substrate was used. […]

[2] = tested on: HCV replicon in HUH-7 cells; experiment: HCV replicon assay (FRET, confirmed by luciferase reporter); format: cell-based, Hepatitis C virus (strain 1b); settings: Hepatitis C virus, 96 h, HUH-7 replicon cells, 4 days
Text: An HCV replicon whole cell system was established as described by Lohmann V, Korner F, Koch J, Herian U, Theilmann L, Bartenschlager R., Science 285(5424):110-3 (1999). This system enabled us to evaluate the effects of our HCV Protease compounds on HCV RNA replication. Briefly, using the HCV strain 1b sequence described in the Lohmann paper (Assession number: AJ238799), an HCV cDNA was synthesized by Operon Technologies, Inc. (Alameda, Calif.), and the full-length replicon was then assembled in plasmid pGem9zf(+) (Promega, Madison, Wis.) using standard molecular biology techniques. The replicon consists of (i) the HCV 5′ UTR fused to the first 12 amino acids of the capsid protein, (ii) the neomycin phosphotransferase gene (neo), (iii) the IRES from encephalomyocarditis virus (EMCV), and (iv) HCV NS3 to NS5B genes and the HCV 3′ UTR. Plasmid DNAs were linearized with Seal and RNA transcripts were synthesized in vitro using the T7 MegaScript transcription kit (Ambion, Austin, Tex.) according to manufacturer's directions. In vitro transcripts of the cDNA were transfected into the human hepatoma cell line, HUH-7. […] Resulting cell lines were characterized for positive and negative strand RNA production and protein production over time.
The HCV replicon FRET assay was developed to monitor the inhibitory effects of compounds described in the disclosure on HCV viral replication. HUH-7 cells, constitutively expressing the HCV replicon, were grown in Dulbecco's Modified Eagle Media (DMEM) (Gibco-BRL) containing 10% Fetal calf serum (FCS) (Sigma) and 1 mg/ml G418 (Gibco-BRL). Cells were seeded the night before (1.5×10^4 cells/well) in 96-well tissue-culture sterile plates. Compound and no compound controls were prepared in DMEM containing 4% FCS, 1:100 Penicillin/Streptomysin (Gibco-BRL), 1:100 L-glutamine and 5% DMSO in the dilution plate (0.5% DMSO final concentration in the assay). Compound/DMSO mixes were added to the cells and incubated for 4 days at 37° C. After 4 days, cells were first assessed for cytotoxicity using alamar Blue (Trek Diagnostic Systems) for a CC50 reading. The toxicity of compound (CC50) was determined by adding 1/10th volume of alamar Blue to the media incubating the cells. After 4 h, the fluorescence signal from each well was read, with an excitation wavelength at 530 nm and an emission wavelength of 580 nm, using the Cytofluor Series 4000 (Perspective Biosystems). Plates were then rinsed thoroughly with Phosphate-Buffered Saline (PBS) (3 times 150 μl).
As a secondary assay, EC50 determinations from the replicon FRET assay were confirmed in a replicon luciferase reporter assay. Utilization of a replicon luciferase reporter assay was first described by Krieger et al (Krieger N, Lohmann V, and Bartenschlager R, J. Viral. 75(10):4614-4624 (2001)). The replicon construct described for our FRET assay was modified by inserting cDNA encoding a humanized form of the Renilla luciferase gene and a linker sequence fused directly to the 3′-end of the luciferase gene. This insert was introduced into the replicon construct using an Asc1 restriction site located in core, directly upstream of the neomycin marker gene. The adaptive mutation at position 1179 (serine to isoleucine) was also introduced (Blight K J, Kolykhalov, A A, Rice, C M, Science 290(5498):1972-1974). A stable cell line constitutively expressing this HCV replicon construct was generated as described above. The luciferase reporter assay was set up as described for the HCV replicon FRET assay with the following modifications. Following 4 days in a 37° C./5% CO2 incubator, cells were analyzed for Renilla Luciferase activity using the Promega Dual-Glo Luciferase Assay System. Media (100 μl) was removed from each well containing cells. To the remaining 50 μl of media, 50 μl of Dual-Glo Luciferase Reagent was added, and plates rocked for 10 min to 2 h at room temperature. […]

T1 sequence (P27958 1027-1711 C1454S/C1711G, one chain of several): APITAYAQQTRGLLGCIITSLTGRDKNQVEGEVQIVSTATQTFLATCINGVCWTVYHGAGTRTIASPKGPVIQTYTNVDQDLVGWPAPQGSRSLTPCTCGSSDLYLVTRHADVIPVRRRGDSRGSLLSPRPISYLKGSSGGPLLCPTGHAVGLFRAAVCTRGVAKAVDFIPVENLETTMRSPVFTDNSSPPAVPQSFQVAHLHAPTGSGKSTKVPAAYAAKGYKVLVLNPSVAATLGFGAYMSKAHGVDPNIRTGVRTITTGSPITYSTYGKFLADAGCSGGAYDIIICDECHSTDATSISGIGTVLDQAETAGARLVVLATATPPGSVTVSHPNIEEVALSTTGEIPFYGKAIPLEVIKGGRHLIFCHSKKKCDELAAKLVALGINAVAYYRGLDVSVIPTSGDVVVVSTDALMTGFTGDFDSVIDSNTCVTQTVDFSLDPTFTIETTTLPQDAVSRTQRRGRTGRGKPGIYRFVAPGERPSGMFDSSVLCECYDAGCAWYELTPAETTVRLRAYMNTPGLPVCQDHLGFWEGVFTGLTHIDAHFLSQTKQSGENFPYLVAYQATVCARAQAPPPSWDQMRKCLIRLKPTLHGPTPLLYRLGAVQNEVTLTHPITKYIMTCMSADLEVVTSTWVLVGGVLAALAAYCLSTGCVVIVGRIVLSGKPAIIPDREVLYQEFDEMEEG

| Compound | IC50 ([1]; class symbols) [nM] | IC50 ([1]; numeric values) [nM] | EC50 ([2]; numeric values) [nM] | EC50 ([2]; class symbols) [nM] |
| --- | --- | --- | --- | --- |
| CO[C@@]12C[C@@H](C(=O)N[C@]3(C(=O)NS(=O)(=O)C4CC4)C[C@H]3C3CC3)N(C1)C(=O)[C@H](C(C)(C)C)NC(=O)OCCCCCCCc1ccccc1-c1ccc2cc1 [Example 18] | 1 to 3 |  |  |  |
| C=C[C@@H]1C[C@]1(NC(=O)[C@@H]1C[C@]2(OC)CN1C(=O)[C@H](C(C)(C)C)NC(=O)OCCCCCc1cc2ccc1-c1ccccc1)C(=O)NS(=O)(=O)C1CC1 [Example 9] |  | 4 | 26 |  |
| CO[C@@]12C[C@@H](C(=O)N[C@]3(C(=O)NS(=O)(=O)C4CC4)C[C@H]3C3CC3)N(C1)C(=O)[C@H](C(C)(C)C)NC(=O)OCC(C)(C)CCCCc1ccccc1-c1ccc2cc1 [Example 5] | 4 to 7 |  |  | 11 to 20 |
| C=C[C@@H]1C[C@]1(NC(=O)[C@@H]1C[C@]2(OC)CN1C(=O)[C@H](C(C)(C)C)NC(=O)OCCCCc1cc2ccc1-c1ccccc1)C(=O)NS(=O)(=O)C1CC1 [Example 8] | 8 to 11 |  |  | 21 to 30 |
| CO[C@@]12C[C@@H](C(=O)N[C@]3(C(=O)NS(=O)(=O)C4CC4)C[C@H]3C3CC3)N(C1)C(=O)[C@H](C(C)(C)C)NC(=O)OCC(C)(C)CCCc1ccccc1-c1ccc2cc1 [Example 16] | 4 to 7 |  |  |  |
| CO[C@@]12C[C@@H](C(=O)N[C@]3(C(=O)NS(=O)(=O)C4CC4)C[C@H]3C3CC3)N(C1)C(=O)[C@H](C(C)(C)C)NC(=O)OCCCCc1cccc(c1)-c1cccc2c1 [Example 21] | 1 to 3 |  |  |  |
| C=C[C@@H]1C[C@]1(NC(=O)[C@@H]1C[C@]2(OC)CN1C(=O)[C@H](C(C)(C)C)NC(=O)OCC(C)(C)CCCCc1cc(OC)ccc1-c1ccc2cc1)C(=O)NS(=O)(=O)C1CC1 [Example 12] | 1 to 3 |  |  | 5.5 to 10 |
| C=C[C@@H]1C[C@]1(NC(=O)[C@@H]1C[C@]2(OC)CN1C(=O)[C@H](C(C)(C)C)NC(=O)OCCCCCCc1ccccc1-c1ccc2cc1)C(=O)NS(=O)(=O)C1CC1 [Example 1] |  | 1 | 5 |  |
| C=C[C@@H]1C[C@]1(NC(=O)[C@@H]1C[C@]2(OC)CN1C(=O)[C@H](C(C)(C)C)NC(=O)OCCCCCCCc1ccccc1-c1ccc2cc1)C(=O)NS(=O)(=O)C1CC1 [Example 19] | 1 to 3 |  |  |  |
| C=C[C@@H]1C[C@]1(NC(=O)[C@@H]1C[C@]2(OC)CN1C(=O)[C@H](C(C)(C)C)NC(=O)OCCC(C)(C)CCCc1cc(OC)ccc1-c1ccc2cc1)C(=O)NS(=O)(=O)C1CC1 [Example 10] | 1 to 3 |  |  | 5.5 to 10 |
| CO[C@@]12C[C@@H](C(=O)N[C@]3(C(=O)NS(=O)(=O)C4CC4)C[C@H]3C3CC3)N(C1)C(=O)[C@H](C(C)(C)C)NC(=O)OCCC(C)(C)CCCc1ccccc1-c1ccc2cc1 [Example 3] | 4 to 7 |  |  | 21 to 30 |
| COc1ccc2c(c1)CCCC(C)(C)CCOC(=O)N[C@@H](C(C)(C)C)C(=O)N1C[C@@](OC)(C[C@H]1C(=O)N[C@]1(C(=O)NS(=O)(=O)C3CC3)C[C@H]1C1CC1)c1ccc-2cc1 [Example 11] | 1 to 3 |  |  | 5.5 to 10 |
| CO[C@@]12C[C@@H](C(=O)N[C@]3(C(=O)NS(=O)(=O)C4CC4)C[C@H]3C3CC3)N(C1)C(=O)[C@H](C(C)(C)C)NC(=O)OCC(C)(C)CCCCc1cc(N(C)C)ccc1-c1ccc2cc1 [Example 22] | 1 to 3 |  |  |  |
| CO[C@@]12C[C@@H](C(=O)N[C@]3(C(=O)NS(=O)(=O)C4CC4)C[C@H]3C3CC3)N(C1)C(=O)[C@H](C(C)(C)C)NC(=O)OCCCCCCc1ccccc1-c1ccc2cc1 [Example 2] |  | 1.5 | 16 |  |
| CO[C@@]12C[C@@H](C(=O)N[C@]3(C(=O)NS(=O)(=O)C4CC4)C[C@H]3C3CC3)N(C1)C(=O)[C@H](C(C)(C)C)NC(=O)OCCCCCc1ccccc1-c1ccc2cc1 [Example 14] | 8 to 11 |  |  |  |
| C=C[C@@H]1C[C@]1(NC(=O)[C@@H]1C[C@]2(OC)CN1C(=O)[C@H](C(C)(C)C)NC(=O)OCCCCCc1ccccc1-c1ccc2cc1)C(=O)NS(=O)(=O)C1CC1 [Example 15] | 4 to 7 |  |  |  |
| COc1ccc2c(c1)CCCCC(C)(C)COC(=O)N[C@@H](C(C)(C)C)C(=O)N1C[C@@](OC)(C[C@H]1C(=O)N[C@]1(C(=O)NS(=O)(=O)C3CC3)C[C@H]1C1CC1)c1ccc-2cc1 [Example 13] | 4 to 7 |  |  |  |
| CO[C@@]12C[C@@H](C(=O)N[C@]3(C(=O)NS(=O)(=O)C4CC4)C[C@H]3C3CC3)N(C1)C(=O)[C@H](C(C)(C)C)NC(=O)OCCCCCCc1ccc(Cl)cc1-c1ccc2cc1 [Example 20] | 1 to 3 |  |  |  |
